Experimental data: paper PMC5520492, “Inhibition of DNA2 nuclease as a therapeutic strategy targeting replication stress in cancer cells” (Oncogenesis, 2017)

Columns and labels:
U2OS cells = assay: RPA phosphorylation after camptothecin (immunofluorescence, chromatin fractionation); assay type: cell-based, human; conditions: NSC-105808 2 h, 0.3 μM; CPT 2 h, 1 μM
Description: (§1) Figure 4 NSC-105808 inhibits HR repair and DSB end resection. (a) Analysis of HR efficiency with the DR-green fluorescent protein (GFP) assay. Representative images of flow cytometry analysis and bar graph showing percentage of GFP cells from at least three independent experiments. Each value represents the mean±s.d. (b, c) Analysis of RPA phosphorylation in U2OS cells treated with NSC-105808 (2 h, 0.3 μM) and/or camptothecin (CPT; 2 h, 1 μM). (b) Representative images of cells subjected to immunofluorescent staining of p-RPA and bar graph showing percentage of cells with positive p-RPA staining from three independent experiments. Each value represents the mean±s.d. (c) Western blot analysis of chromatin fraction with the indicated antibodies. (d) Analysis of colony formation by FANCD2 (+/+) and FANCD2 (−/−) cells treated with cisplatin and/or NSC-105808. Each value is relative to the untreated control group of each cell line. The graph represents the mean±s.e.m. from three independent experiments. *P<0.01.
For the detection of DNA damage-induced p-RPA34 (S4/S8), immunofluorescent staining, and the preparation of chromatin fractions and western blot analyses were performed as described previously.[33], [48]

[1] = tested on: MCF10A cells with inducible H-Ras expression; assay: MTT proliferation, MCF10A with inducible H-Ras; assay type: cell-based, human; conditions: 48-h treatment, doxycycline induction
Description: Figure 5 Oncogene induction enhances sensitivity of cancer cells to NSC-105808. (a-e) Graphs showing proliferation of indicated cell lines in response to a 48-h treatment with the indicated concentrations of NSC-105808. Proliferation relative to cells treated with vehicle alone was determined by the 3-(4,5-dimethylthiazol-2-yl)-2,5-diphenyltetrazolium bromide (MTT) assay. Each value represents the mean±s.e.m. from three independent experiments. (a) Proliferation of control pancreatic epithelial cells DT-PD59 and transformed pancreatic cancer cells AsPC-1 and PANC-1. (b) Proliferation of normal breast epithelial cells MCF10A and breast cancer cells Hs578T and BT549. (c) Proliferation of MCF10A cells with or without H-Ras expression. H-Ras was induced with doxycycline (2 μg/ml). […]
Cell proliferation was measured by 3-(4,5-dimethylthiazol-2-yl)-2,5-diphenyltetrazolium bromide (Sigma) reduction (Supplementary Materials and Methods).
To determine the cell proliferation rate, 1000 cells/well were seeded in a 96-well plate in a total volume of 100 µl in triplicate in each experiment. […] Plates were read at 490 nm and 650 nm (background) in a
microplate reader (Molecular Devices). After the subtraction of background, cell viability was calculated as fold change relative to control cells.

FANCD2−/− cells = assay: Colony formation with cisplatin in FANCD2-deficient cells; assay type: cell-based; conditions: cisplatin 0.3125 µM, NSC-105808 […]
Description: as §1
DNA2 knockdown cells were seeded at low density; cells were then left for 2 weeks to allow colonies to form. Cells were stained with 2% methylene blue/50% ethanol, and colonies containing 50 or more cells were counted. […] Colonies were fixed, stained, and scored ten days after treatment.

Bloom syndrome (BLM) = target: T1, Bloom syndrome (BLM) (Homo sapiens, UniProt P54132); assay: dsDNA unwinding by BLM; assay type: biochemical; conditions: 10 µM
T1 construct: made in house
Description: Figure S2. […] (a) Analysis of 5’ flap processing by hDNA2 in presence of the compounds at the indicated concentration. DNA2 (2.5 nM) was incubated with the Y DNA substrate (5 nM ends) and the indicated concentration of inhibitor. (b) Plots showing quantitation of the experiments shown in a. Plotted are the average data from three independent experiments with the error bars representing one standard deviation. (c) Analysis of dsDNA unwinding by BLM. BLM (4, 8 and 16 nM), RPA (100 nM) and internally radiolabelled dsDNA (0.5 nM ends) was incubated for 20 min at 37^ºC in presence of either DMSO or NSC-105808 (10 µM) and the products were resolved on a 1% agarose gel. (d) Plots showing quantitation of the experiments shown in c. Plotted are the average data from three independent experiments with the error bars representing one standard deviation. (e) Analysis of the degradation of a 2 kb internally labeled dsDNA (0.5 nM ends) by EXO1 (5 nM) in presence of NSC-105808 (10 µM). (f) Plot showing quantitation of the experiment in e. […] 100 nM hDNA2 was incubated with γ^32P-ATP in the presence of oligonucleotide ssDNA (200 nM) for 20 minutes at 37^ºC in presence of either DMSO or inhibitor (10 µM) and the products were resolved on a TLC plate. (h) Analysis of hDNA2 binding to DNA. […]

T1 sequence (P54132 whole entry): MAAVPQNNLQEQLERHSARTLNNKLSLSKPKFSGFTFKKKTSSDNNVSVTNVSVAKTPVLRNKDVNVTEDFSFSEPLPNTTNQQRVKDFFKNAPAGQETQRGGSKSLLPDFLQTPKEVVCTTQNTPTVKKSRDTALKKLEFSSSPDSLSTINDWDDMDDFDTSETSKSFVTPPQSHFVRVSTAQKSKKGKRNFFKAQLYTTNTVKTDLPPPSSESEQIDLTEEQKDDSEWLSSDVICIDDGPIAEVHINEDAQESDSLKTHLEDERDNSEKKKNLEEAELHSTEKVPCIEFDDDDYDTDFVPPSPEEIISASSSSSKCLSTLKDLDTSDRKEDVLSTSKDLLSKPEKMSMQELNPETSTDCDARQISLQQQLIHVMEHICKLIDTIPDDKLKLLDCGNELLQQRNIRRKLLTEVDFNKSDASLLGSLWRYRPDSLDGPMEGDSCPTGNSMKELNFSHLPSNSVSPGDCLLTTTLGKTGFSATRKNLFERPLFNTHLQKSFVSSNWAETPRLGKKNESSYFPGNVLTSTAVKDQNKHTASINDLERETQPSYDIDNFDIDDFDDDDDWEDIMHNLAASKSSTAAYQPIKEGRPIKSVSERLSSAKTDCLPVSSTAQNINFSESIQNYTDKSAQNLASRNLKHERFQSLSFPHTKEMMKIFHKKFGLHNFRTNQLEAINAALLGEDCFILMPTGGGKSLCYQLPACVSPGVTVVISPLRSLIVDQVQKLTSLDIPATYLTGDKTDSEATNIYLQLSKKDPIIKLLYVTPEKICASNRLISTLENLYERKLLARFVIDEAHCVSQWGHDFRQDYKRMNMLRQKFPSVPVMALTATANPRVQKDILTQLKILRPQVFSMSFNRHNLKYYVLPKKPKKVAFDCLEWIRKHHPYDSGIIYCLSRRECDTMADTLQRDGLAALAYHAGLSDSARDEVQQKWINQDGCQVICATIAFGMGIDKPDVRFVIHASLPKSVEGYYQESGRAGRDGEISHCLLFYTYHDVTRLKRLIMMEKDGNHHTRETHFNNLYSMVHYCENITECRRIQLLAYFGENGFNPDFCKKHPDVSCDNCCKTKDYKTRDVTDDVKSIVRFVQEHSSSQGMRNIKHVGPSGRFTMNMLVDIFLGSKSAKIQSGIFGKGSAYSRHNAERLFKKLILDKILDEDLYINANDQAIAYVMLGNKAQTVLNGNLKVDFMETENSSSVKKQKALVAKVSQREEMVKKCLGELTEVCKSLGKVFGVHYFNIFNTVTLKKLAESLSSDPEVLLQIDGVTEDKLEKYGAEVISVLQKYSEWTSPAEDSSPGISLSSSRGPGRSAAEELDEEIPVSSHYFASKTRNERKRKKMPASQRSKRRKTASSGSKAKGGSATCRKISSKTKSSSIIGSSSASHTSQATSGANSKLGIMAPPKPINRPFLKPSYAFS

NC1=C(Br)C(=O)c2ncccc2C1=O [NSC-105808, 6-amino-7-bromoquinoline-5,8-dione]
Accumulation of camptothecin-induced p-RPA (U2OS cells): significantly attenuated | γ-H2AX level in chromatin fraction (U2OS cells): concomitant enhancement | Sensitivity upon activation of H-Ras [1]: increased sensitivity | Cisplatin sensitivity of FANCD2−/− cells (colony formation) (FANCD2−/− cells): lessened the cisplatin sensitivity | Effect on ability of Bloom syndrome to unwind DNA (Bloom syndrome (BLM)): no effect
